Source: PubChem BioAssay AID330 (DTP/NCI, 2004)
Where “and” joins values, the source holds several entries; their conditions need not be identical. Equal values may be shown once. Toxic doses and inconclusive results are not listed.

System: P388 leukemia ip, CD2F1 mice, survival T/C
Test: NCI In Vivo Anticancer Drug Screen. Data for tumor model P388 Leukemia (intraperitoneal) in CD2F1 (CDF1) mice
Conditions: endpoint: median survival time, higher = longer survival
Method in brief: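 Mice carrying the transplanted tumor received test compound or vehicle. Survival was recorded in each group, and the value is the treated-group measurement divided by that of the vehicle-treated control group.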

[1] = dose: 100.0 mg/kg/injection, schedule: Q04DX003 (ip), vehicle: Klucel (hydroxypropylcellulose) (HPC)
[2] = dose: 200.0 mg/kg/injection, schedule: Q04DX003 (ip), vehicle: Klucel (hydroxypropylcellulose) (HPC)
[3] = dose: 400.0 mg/kg/injection, schedule: Q04DX003 (ip), vehicle: Klucel (hydroxypropylcellulose) (HPC)
[4] = dose: 50.0 mg/kg/injection, schedule: Q01DX009 (ip), vehicle: saline with Tween-80
[5] = dose: 100.0 mg/kg/injection, schedule: Q01DX009 (ip), vehicle: saline with Tween-80

Compound: CC1C(c2ccccc2)N(C)C(c2ccccc2)C(C)C1(O)c1ccccc1 (configuration not stated)
- T/C (dose: 50.0 mg/kg/injection, schedule: Q01DX005 (ip), vehicle: saline with Tween-80): 97 % of control
- T/C (dose: 100.0 mg/kg/injection, schedule: Q01DX005 (ip), vehicle: saline with Tween-80): 94 % of control
- T/C (dose: 200.0 mg/kg/injection, schedule: Q01DX005 (ip), vehicle: saline with Tween-80): 94 % of control

Compound: O=c1[nH]c(=O)n(Cl)c(=O)n1Cl
- T/C (dose: 50.0 mg/kg/injection, schedule: Q01DX009 (ip), vehicle: Klucel (hydroxypropylcellulose) (HPC)): 116 % of control
- T/C (dose: 100.0 mg/kg/injection, schedule: Q01DX009 (ip), vehicle: Klucel (hydroxypropylcellulose) (HPC)): 99 % of control

Compound: NC(=O)c1nnn(-c2ccccc2)n1
- T/C [1]: 105 % of control
- T/C [2]: 99 % of control
- T/C [3]: 89 % of control

Compound: CC[PH+](CC)CC.[Cl][Au]
- T/C (dose: 1.25 mg/kg/injection, schedule: Q01DX009 (ip), vehicle: Klucel (hydroxypropylcellulose) (HPC)): 100 % of control
- T/C (dose: 2.5 mg/kg/injection, schedule: Q01DX009 (ip), vehicle: Klucel (hydroxypropylcellulose) (HPC)): 99 % of control and 121 % of control
- T/C (dose: 5.0 mg/kg/injection, schedule: Q01DX009 (ip), vehicle: Klucel (hydroxypropylcellulose) (HPC)): 114 % of control (2×) and 123 % of control
- T/C (dose: 10.0 mg/kg/injection, schedule: Q01DX009 (ip), vehicle: Klucel (hydroxypropylcellulose) (HPC)): 124 % of control

Compound: c1ccc2c(c1)C1OC2c2ccccc21
- T/C (dose: 50.0 mg/kg/injection, schedule: Q01DX005 (ip), vehicle: Klucel (hydroxypropylcellulose) (HPC)): 99 % of control
- T/C (dose: 100.0 mg/kg/injection, schedule: Q01DX005 (ip), vehicle: Klucel (hydroxypropylcellulose) (HPC)): 108 % of control
- T/C (dose: 200.0 mg/kg/injection, schedule: Q01DX005 (ip), vehicle: Klucel (hydroxypropylcellulose) (HPC)): 100 % of control

Compound: CC12C(=O)C(c3ccccc3)(C(c3ccccc3)=C1c1ccccc1)C1OC(=O)OC12 (configuration not stated)
- T/C [4]: 95 % of control
- T/C [5]: 91 % of control

Compound: CCc1ncc(CO)n1Cc1cccc2ccccc12
- T/C [4]: 100 % of control
- T/C [5]: 102 % of control
- T/C (dose: 200.0 mg/kg/injection, schedule: Q01DX009 (ip), vehicle: saline with Tween-80): 103 % of control

Compound: CC(C)(C)SC(=O)c1ccco1
- T/C [4]: 118 % of control
- T/C [5]: 114 % of control

Compound: COC(=O)C1=C(C(=O)OC)C2(C)C=CC1C1C(OC(C)=O)C(OC(C)=O)C12 (configuration not stated)
- T/C [1]: 105 % of control
- T/C [2]: 108 % of control
- T/C [3]: 107 % of control

Compound: O=C1C2C3C=CC(O3)C2C(=O)N1O (configuration not stated)
- T/C (dose: 3.13 mg/kg/injection, schedule: Q01DX009 (ip), vehicle: water): 102 % of control
- T/C (dose: 6.25 mg/kg/injection, schedule: Q01DX009 (ip), vehicle: water): 112 % of control
- T/C (dose: 12.5 mg/kg/injection, schedule: Q01DX009 (ip), vehicle: water): 121 % of control
- T/C (dose: 25.0 mg/kg/injection, schedule: Q01DX009 (ip), vehicle: water): 118 % of control
- T/C (dose: 50.0 mg/kg/injection, schedule: Q01DX009 (ip), vehicle: water): 105 % of control

Compound: CNC(=O)Oc1ccc[nH]c1=O
- T/C (dose: 16.0 mg/kg/injection, schedule: Q01DX009 (ip), vehicle: saline with Tween-80): 106 % of control and 110 % of control
- T/C (dose: 25.0 mg/kg/injection, schedule: Q01DX009 (ip), vehicle: saline): 106 % of control and 112 % of control
- T/C (dose: 25.0 mg/kg/injection, schedule: Q01DX009 (sc), vehicle: saline): 102 % of control and 109 % of control
- T/C (dose: 32.0 mg/kg/injection, schedule: Q01DX009 (ip), vehicle: saline with Tween-80): 112 % of control and 122 % of control
- T/C (dose: 50.0 mg/kg/injection, schedule: Q01DX009 (ip), vehicle: saline): 116 % of control and 120 % of control
- T/C (dose: 50.0 mg/kg/injection, schedule: Q01DX009 (sc), vehicle: saline): 109 % of control and 115 % of control
- T/C (dose: 64.0 mg/kg/injection, schedule: Q01DX009 (ip), vehicle: saline with Tween-80): 120 % of control
- T/C (dose: 100.0 mg/kg/injection, schedule: Q01DX009 (sc), vehicle: saline): 111 % of control and 113 % of control
- T/C (dose: 128.0 mg/kg/injection, schedule: Q01DX009 (ip), vehicle: saline with Tween-80): 120 % of control
- T/C (dose: 200.0 mg/kg/injection, schedule: Q01DX009 (sc), vehicle: saline): 115 % of control and 120 % of control
- T/C (dose: 400.0 mg/kg/injection, schedule: Q01DX009 (ip), vehicle: saline): 153 % of control
- T/C (dose: 400.0 mg/kg/injection, schedule: Q01DX009 (sc), vehicle: saline): 122 % of control
